Results as given in paper PMC8213057, “Targeting ALK2: An Open Science Approach to Developing Therapeutics for the Treatment of Diffuse Intrinsic Pontine Glioma” (Journal of Medicinal Chemistry, 2020).

Assays:
[1] = target: NIM1 (Homo sapiens, UniProt Q8IY84); experiment: biochemical; settings: read-out: % enzyme activity, 1 μM; Run 1, Run 2
[2] = target: CDK3/cyclin E2 (Homo sapiens, UniProt Q00526); experiment: biochemical; settings: read-out: % enzyme activity, 1 μM; Run 1, Run 2
[3] = target: c-Kit (Homo sapiens, UniProt P10721); experiment: biochemical; settings: read-out: % enzyme activity, 1 μM; Run 1, Run 2
Sequence of c-Kit (P10721 26-976): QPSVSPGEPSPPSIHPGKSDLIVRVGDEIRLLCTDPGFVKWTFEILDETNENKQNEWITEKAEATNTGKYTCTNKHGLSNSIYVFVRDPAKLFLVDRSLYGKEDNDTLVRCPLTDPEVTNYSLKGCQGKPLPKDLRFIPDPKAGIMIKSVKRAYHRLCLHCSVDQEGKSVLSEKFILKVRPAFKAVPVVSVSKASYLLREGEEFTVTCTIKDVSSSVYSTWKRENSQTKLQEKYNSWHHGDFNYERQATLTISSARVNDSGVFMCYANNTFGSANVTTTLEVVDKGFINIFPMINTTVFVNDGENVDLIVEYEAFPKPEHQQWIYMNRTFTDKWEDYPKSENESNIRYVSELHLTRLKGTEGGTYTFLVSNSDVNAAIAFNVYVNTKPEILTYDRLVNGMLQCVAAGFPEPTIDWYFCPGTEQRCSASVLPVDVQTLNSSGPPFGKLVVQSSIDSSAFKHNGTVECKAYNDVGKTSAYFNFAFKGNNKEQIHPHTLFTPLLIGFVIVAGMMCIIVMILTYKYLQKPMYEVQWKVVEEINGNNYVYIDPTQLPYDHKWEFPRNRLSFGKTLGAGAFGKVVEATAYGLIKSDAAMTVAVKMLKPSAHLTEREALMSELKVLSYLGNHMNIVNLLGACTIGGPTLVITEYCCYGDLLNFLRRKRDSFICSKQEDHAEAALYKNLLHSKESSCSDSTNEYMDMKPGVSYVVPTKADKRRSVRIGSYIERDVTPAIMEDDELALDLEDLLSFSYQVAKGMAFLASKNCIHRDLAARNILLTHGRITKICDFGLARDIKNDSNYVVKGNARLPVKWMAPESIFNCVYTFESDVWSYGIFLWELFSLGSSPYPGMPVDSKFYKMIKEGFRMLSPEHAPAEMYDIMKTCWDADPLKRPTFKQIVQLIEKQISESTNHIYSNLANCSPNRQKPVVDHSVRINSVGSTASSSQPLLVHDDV

[4] = target: MARK3 (Homo sapiens, UniProt P27448); experiment: biochemical; settings: read-out: % enzyme activity, 1 μM; Run 1, Run 2
[5] = target: T1, DLK/MAP3K12 (Homo sapiens, UniProt Q12852); experiment: biochemical; settings: read-out: % enzyme activity, 1 μM; Run 1, Run 2
T1 sequence (Q12852 1-859): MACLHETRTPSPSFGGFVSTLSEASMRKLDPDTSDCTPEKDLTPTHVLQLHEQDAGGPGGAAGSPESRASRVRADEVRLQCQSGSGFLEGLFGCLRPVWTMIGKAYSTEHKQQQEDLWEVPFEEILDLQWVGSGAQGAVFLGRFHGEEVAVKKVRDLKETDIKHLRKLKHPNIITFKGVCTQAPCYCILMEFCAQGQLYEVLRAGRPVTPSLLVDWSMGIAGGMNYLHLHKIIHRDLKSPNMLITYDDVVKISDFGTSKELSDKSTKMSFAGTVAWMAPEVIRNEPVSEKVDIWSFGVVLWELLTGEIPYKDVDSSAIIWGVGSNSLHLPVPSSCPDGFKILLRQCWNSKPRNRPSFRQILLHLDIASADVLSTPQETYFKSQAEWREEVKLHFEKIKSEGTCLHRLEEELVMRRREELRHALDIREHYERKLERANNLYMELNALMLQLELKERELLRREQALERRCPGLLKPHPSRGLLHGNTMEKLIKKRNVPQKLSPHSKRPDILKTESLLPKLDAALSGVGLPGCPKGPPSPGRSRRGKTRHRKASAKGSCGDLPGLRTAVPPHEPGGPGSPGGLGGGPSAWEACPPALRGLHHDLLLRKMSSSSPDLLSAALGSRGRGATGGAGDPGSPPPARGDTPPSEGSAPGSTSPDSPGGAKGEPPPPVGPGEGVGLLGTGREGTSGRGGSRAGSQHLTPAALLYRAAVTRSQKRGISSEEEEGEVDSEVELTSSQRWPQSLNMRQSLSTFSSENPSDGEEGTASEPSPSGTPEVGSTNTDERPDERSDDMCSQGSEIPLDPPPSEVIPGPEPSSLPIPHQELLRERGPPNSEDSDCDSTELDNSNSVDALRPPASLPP

[6] = target: MAPKAPK2 (Homo sapiens, UniProt P49137); settings: 1 μM; Run 1, Run 2
Sequence of MAPKAPK2 (P49137 whole entry): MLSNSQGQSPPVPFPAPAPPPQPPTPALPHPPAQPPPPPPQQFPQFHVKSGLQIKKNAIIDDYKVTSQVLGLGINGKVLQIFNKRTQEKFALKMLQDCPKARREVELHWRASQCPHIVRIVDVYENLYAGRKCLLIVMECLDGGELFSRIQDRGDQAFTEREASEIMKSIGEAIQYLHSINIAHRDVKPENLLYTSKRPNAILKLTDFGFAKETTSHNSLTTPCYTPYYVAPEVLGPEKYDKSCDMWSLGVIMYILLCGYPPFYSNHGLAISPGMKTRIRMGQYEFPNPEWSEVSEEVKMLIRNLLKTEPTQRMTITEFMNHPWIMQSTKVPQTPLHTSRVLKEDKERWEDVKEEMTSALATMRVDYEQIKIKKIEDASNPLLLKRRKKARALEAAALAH

[7] = target: CDK9/cyclin T1 (Homo sapiens, UniProt P50750); experiment: biochemical; settings: read-out: % enzyme activity, 1 μM; Run 1, Run 2
Sequence of CDK9/cyclin T1 (P50750 whole entry): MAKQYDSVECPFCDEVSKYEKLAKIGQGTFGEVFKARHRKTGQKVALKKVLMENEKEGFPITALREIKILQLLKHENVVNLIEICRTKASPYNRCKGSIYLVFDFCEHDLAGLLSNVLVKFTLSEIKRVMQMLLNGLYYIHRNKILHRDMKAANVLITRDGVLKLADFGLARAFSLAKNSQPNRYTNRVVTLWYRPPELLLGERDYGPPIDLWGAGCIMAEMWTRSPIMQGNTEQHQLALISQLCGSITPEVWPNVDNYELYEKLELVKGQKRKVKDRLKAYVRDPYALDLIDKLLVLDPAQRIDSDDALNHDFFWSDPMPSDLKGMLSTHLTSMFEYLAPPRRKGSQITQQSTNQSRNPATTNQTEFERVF
Sequence of CDK9/cyclin T1 (O60563 whole entry partner): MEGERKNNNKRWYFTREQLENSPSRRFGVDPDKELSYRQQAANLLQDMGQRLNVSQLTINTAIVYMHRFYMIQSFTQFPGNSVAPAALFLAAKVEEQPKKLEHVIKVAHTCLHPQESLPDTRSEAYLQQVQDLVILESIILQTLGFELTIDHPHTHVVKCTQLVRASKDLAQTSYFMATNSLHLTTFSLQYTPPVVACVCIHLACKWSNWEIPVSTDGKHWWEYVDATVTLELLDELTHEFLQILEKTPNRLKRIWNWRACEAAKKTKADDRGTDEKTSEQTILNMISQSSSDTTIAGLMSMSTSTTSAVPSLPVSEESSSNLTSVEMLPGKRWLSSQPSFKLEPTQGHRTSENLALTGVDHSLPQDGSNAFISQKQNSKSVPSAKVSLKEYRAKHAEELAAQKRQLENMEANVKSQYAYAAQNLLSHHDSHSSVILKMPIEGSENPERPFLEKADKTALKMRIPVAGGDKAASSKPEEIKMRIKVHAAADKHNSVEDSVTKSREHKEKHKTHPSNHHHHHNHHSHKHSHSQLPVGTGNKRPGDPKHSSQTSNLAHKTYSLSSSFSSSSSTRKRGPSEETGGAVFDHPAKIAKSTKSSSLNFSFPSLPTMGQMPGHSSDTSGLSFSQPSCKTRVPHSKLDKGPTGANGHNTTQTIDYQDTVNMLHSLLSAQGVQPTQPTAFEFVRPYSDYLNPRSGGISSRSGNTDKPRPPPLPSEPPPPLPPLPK

[8] = target: T2, GRK2 (Homo sapiens, UniProt P25098); settings: 1 μM; Run 1, Run 2
T2 sequence (P25098 1-689): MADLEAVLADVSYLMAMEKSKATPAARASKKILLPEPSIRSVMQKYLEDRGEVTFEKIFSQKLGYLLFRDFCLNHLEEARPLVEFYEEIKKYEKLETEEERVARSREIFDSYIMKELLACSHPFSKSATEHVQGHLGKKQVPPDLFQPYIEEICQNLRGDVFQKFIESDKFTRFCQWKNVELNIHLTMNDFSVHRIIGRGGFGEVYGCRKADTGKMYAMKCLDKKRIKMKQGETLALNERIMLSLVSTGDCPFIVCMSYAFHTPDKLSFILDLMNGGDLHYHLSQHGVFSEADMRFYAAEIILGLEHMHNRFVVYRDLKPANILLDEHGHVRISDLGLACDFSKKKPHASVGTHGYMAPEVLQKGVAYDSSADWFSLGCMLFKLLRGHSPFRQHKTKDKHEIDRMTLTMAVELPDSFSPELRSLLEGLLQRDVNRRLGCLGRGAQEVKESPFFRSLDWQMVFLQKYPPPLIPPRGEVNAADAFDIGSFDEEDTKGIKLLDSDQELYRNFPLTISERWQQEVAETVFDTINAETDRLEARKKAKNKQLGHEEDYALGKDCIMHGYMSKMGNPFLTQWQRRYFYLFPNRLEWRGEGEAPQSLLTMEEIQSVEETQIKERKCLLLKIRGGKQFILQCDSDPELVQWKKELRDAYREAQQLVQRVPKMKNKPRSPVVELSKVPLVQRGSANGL

[9] = target: CK2a (Homo sapiens, UniProt P68400); experiment: biochemical; settings: read-out: % enzyme activity, 1 μM; Run 1, Run 2
Sequence of CK2a (P68400 whole entry): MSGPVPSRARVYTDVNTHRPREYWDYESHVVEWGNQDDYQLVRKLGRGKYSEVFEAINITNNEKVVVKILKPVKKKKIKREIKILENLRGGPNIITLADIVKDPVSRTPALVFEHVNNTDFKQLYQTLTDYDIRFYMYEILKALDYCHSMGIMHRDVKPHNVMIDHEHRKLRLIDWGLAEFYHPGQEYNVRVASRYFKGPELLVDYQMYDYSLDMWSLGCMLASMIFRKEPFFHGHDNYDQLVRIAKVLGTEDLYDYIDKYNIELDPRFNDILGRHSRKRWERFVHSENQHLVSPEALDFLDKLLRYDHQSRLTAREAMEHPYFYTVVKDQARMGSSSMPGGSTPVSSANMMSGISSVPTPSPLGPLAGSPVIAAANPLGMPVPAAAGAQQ

[10] = target: IGF1R (Homo sapiens, UniProt P08069); settings: 1 μM; Run 1, Run 2
Sequence of IGF1R (P08069 31-1367): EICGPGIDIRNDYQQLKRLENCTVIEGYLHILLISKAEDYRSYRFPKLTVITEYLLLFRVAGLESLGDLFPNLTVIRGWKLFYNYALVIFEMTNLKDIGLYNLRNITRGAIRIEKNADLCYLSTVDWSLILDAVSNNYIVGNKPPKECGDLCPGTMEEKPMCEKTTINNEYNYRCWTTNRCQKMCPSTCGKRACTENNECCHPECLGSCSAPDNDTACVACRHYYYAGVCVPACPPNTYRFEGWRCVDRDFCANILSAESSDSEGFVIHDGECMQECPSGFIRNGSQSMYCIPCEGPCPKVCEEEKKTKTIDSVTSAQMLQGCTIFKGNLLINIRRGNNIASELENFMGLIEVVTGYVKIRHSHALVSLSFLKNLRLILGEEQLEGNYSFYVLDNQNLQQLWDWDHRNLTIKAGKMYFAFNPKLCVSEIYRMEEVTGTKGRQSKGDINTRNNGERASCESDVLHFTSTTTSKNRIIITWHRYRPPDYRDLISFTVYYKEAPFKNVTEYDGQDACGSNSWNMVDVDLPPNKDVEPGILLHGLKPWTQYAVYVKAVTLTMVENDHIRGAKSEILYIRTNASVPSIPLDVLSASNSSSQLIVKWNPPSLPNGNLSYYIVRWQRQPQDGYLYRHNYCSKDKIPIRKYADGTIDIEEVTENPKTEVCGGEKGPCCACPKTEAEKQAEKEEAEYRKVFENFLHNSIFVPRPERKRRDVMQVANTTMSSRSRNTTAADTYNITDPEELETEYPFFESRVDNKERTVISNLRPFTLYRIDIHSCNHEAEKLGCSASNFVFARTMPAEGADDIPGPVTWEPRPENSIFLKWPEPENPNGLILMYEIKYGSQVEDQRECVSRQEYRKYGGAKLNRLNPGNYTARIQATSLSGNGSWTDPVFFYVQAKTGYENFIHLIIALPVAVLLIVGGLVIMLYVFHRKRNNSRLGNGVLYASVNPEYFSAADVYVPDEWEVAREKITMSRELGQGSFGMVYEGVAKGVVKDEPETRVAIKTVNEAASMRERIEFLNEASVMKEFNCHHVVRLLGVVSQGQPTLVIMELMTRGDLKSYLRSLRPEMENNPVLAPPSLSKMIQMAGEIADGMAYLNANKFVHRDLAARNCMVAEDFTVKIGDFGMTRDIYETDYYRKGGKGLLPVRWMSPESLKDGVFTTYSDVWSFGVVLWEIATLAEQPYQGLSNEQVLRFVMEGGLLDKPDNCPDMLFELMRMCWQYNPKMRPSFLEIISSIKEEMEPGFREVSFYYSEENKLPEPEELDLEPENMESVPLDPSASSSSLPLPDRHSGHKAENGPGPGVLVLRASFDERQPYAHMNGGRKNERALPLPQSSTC

[11] = target: FES/FPS (Homo sapiens, UniProt P07332); settings: 1 μM; Run 1, Run 2
[12] = target: T3, PDK1/PDPK1 (Homo sapiens, UniProt O15530); settings: 1 μM; Run 1, Run 2
T3 sequence (O15530 1-556): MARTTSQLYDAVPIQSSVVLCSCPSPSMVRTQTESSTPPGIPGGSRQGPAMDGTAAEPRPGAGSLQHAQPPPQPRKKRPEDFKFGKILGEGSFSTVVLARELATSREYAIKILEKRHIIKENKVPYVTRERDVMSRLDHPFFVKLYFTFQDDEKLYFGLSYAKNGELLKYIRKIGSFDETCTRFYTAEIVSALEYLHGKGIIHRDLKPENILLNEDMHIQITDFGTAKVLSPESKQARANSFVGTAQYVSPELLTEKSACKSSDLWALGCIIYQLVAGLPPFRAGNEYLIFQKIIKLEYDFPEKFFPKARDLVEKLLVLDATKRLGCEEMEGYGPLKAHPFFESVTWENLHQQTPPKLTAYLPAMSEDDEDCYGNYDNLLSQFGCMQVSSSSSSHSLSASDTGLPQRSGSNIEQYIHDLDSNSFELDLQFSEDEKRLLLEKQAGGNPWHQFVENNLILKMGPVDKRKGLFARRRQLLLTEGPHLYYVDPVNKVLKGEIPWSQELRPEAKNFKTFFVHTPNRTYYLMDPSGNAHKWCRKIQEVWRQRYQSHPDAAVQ

[13] = target: WNK1 (Homo sapiens, UniProt Q9H4A3); experiment: biochemical; settings: read-out: % enzyme activity, 1 μM; Run 1, Run 2

Sequence of NIM1 (Q8IY84 whole entry): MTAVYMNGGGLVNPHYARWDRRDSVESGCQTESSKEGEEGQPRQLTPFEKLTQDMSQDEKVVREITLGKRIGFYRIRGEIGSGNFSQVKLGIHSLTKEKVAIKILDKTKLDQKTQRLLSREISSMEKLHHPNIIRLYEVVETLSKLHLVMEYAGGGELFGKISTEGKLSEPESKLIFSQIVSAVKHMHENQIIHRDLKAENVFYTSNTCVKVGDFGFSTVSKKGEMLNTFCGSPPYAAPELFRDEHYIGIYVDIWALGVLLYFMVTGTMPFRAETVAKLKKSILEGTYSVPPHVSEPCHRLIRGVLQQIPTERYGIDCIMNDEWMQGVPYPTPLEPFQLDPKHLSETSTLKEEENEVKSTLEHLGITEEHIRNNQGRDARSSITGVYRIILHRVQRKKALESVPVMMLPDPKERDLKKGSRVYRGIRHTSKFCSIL

| SMILES | remaining activity at 1 µM [1] [%] | remaining activity at 1 µM [2] [%] | remaining activity at 1 µM [3] [%] | remaining activity at 1 µM [4] [%] | remaining activity at 1 µM [5] [%] | % enzyme activity [6] [%] | remaining activity at 1 µM [7] [%] | % enzyme activity [8] [%] | remaining activity at 1 µM [9] [%] | % enzyme activity [10] [%] | % enzyme activity [11] [%] | % enzyme activity [12] [%] | remaining activity at 1 µM [13] [%] |
| --- | --- | --- | --- | --- | --- | --- | --- | --- | --- | --- | --- | --- | --- |
| COc1cc(-c2cncc(-c3ccc(N4CCN(C)CC4)cc3)c2C)cc(F)c1C(N)=O [Compound 26a, 2-Fluoro-6-methoxy-4-(4-methyl-5-(4-(4-methylpiperazin-1-yl)phenyl)pyridin-3-yl)benzamide] | 96.6 | 89.5 | 74.1 | 83.5 | 93.7 | 101.22 | 90.8 | 103.58 | 92.5 | 98.31 | 99.20 | 91.49 | 108 |
| COc1cc(-c2cncc(-c3ccc(N4C[C@@H](C)N(C)[C@@H](C)C4)cc3)c2C)cc(F)c1C(N)=O [Compound 26c, 2-Fluoro-6-methoxy-4-(4-methyl-5-(4-((3R,5S)-3,4,5-trimethylpiperazin-1-yl)phenyl)pyridin-3-yl)benzamide] | 98.2 | 86.2 | 75.8 | 95 | 99.2 | 93.08 | 97.1 | 99.17 | 87.2 | 94.80 | 98.66 | 94.36 | 104 |
